{"source": "paper PMC11530689", "about": "“Anti colorectal cancer activity and in silico studies of novel pyridine nortopsentin analog as cyclin dependent kinase 6 inhibitor” (Scientific Reports, 2024)", "key": {"MCF7 cancer cell line": {"tested_on": "MCF7 cancer cell line", "design": "method as in PMID 28688277", "settings": "cited from earlier work"}, "CDK1": {"tested_on": "CDK1", "design": "method as in PMID 28688277", "settings": "cited from earlier work"}, "P388 cell line": {"tested_on": "P388 cell line", "design": "method as in PMID 11425579", "settings": "cited from earlier work"}, "A549 cell line": {"tested_on": "A549 cell line", "design": "method as in PMID 11425579", "settings": "cited from earlier work"}, "HCT-116 cells": {"tested_on": "HCT-116 cells", "experiment": "MTT assay, IC50 determination", "assay_type": "cell-based", "settings": "Homo sapiens, HCT-116, colorectal cancer cells, comparator", "description": "HCT-116 (colon cancer cell line) was obtained from the American Type Culture Collection (ATCC). The cancer cell line was grown in Dulbecco’s Modified Eagle’s Medium (DMEM) supplemented with 10% fetal bovine serum (FBS), penicillin/streptomycin (100 U/mL and 100 μg/mL, respectively) and 2 mM L-glutamine. The cells were maintained at 37 °C in 5% CO2.\nThe cytotoxic activity of nortopsintin analogs (4a–4j) was determined by the national cancer institute (NCI, Bethesda, Maryland, USA) against 60 different cancer cell lines at a single concentration of (10^−5 M). For the determination of IC50 value, we used MTT assay kit (Sigma) according to the manufacturer’s protocol. HCT-116 cells were seeded into a 96-well plate at a concentration of 20,000 cells/well. After 24 h, the media was aspirated and replaced with serum-free media containing serial dilutions of the 4i compound. The cells were treated for 48 h in triplicates. […] The percentage of cytotoxicity was calculated using the following equation: % Cytotoxicity = [1 − (AVx/AVNC)] × 100.\nWhere, AVx denotes the average absorbance of the sample and AVNC denotes the average absorbance of the negative control. The absorbance was measured at 570 nm with reference at 690 nm."}}, "note": "pIC50: −log10 of the molar value."}
{"smiles": "COCCn1cc(-c2nc(-c3c[nH]c4ncccc34)cs2)c2cc(OC)ccc21", "note": "[III]", "values": [{"measurement": "antitumor activity", "setting": "MCF7 cancer cell line", "value": "demonstrated antitumor activity"}, {"measurement": "CDK1 activity in vitro", "setting": "CDK1", "value": "inhibiting CDK1 activity in vitro"}]}
{"smiles": "COc1ccc2c(-c3cc(C(F)(F)F)cc(-c4cn(S(=O)(=O)c5ccc(C)cc5)c5cc(OC)ccc45)n3)cn(S(=O)(=O)c3ccc(C)cc3)c2c1", "note": "[II, bis(indolyl)-4-trifluoromethylpyridine]", "values": [{"measurement": "pIC50", "setting": "P388 cell line", "value": 5.37}, {"measurement": "pIC50", "setting": "A549 cell line", "value": 5.77}]}
{"smiles": "COc1cccc2c1C(=O)c1c(O)c3c(c(O)c1C2=O)C[C@@](O)(C(=O)CO)C[C@@H]3O[C@H]1C[C@H](N)[C@H](O)[C@H](C)O1", "note": "[doxorubicin, reference compound]", "values": [{"measurement": "pIC50", "setting": "HCT-116 cells", "value": 5.00}]}
